Test results as given in the supplement of paper PMC10307832.

Columns and labels:
Experiment in all cases: relative viability (nuclei count vs DMSO), 5 days (fraction); higher = more cells survive
OSI-027 + Navitoclax = compound: COc1cccc2cc(-c3nc([C@H]4CC[C@H](C(=O)O)CC4)n4ncnc(N)c34)[nH]c12 [OSI-027] + CC1(C)CCC(c2ccc(Cl)cc2)=C(CN2CCN(c3ccc(C(=O)NS(=O)(=O)c4ccc(N[C@H](CCN5CCOCC5)CSc5ccccc5)c(S(=O)(=O)C(F)(F)F)c4)cc3)CC2)C1 [Navitoclax] (partner 0.5 µM)
Outline: (§1)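 The day after seeding in 1536-well plates, lung cancer cell lines were treated by pin tool with a single drug, or with a fixed anchor-drug dose together with five library-drug doses (not always all listed) in √10 steps. After 5 days, a combined fix-and-stain solution (final 0.05% Triton X-100, 1% formaldehyde, 1 ug/ml Hoechst) was added. Nuclei counted on 4× images gave relative viability as treated counts over vehicle counts, reported as the median of duplicate plates.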

Vemurafenib + Pemetrexed = compound: CCCS(=O)(=O)Nc1ccc(F)c(C(=O)c2c[nH]c3ncc(-c4ccc(Cl)cc4)cc23)c1F [Vemurafenib] + Nc1nc2[nH]cc(CCc3ccc(C(=O)N[C@@H](CCC(=O)O)C(=O)O)cc3)c2c(=O)[nH]1 [Pemetrexed] (partner 0.2 µM)
Outline: as §1

Vemurafenib + Linsitinib = compound: CCCS(=O)(=O)Nc1ccc(F)c(C(=O)c2c[nH]c3ncc(-c4ccc(Cl)cc4)cc23)c1F [Vemurafenib] + C[C@]1(O)C[C@@H](c2nc(-c3ccc4ccc(-c5ccccc5)nc4c3)c3c(N)nccn32)C1 [Linsitinib] (partner 1 µM)
Outline: as §1

Alpelisib + OSI-027 = compound: Cc1nc(NC(=O)N2CCC[C@H]2C(N)=O)sc1-c1ccnc(C(C)(C)C(F)(F)F)c1 [Alpelisib] + COc1cccc2cc(-c3nc([C@H]4CC[C@H](C(=O)O)CC4)n4ncnc(N)c34)[nH]c12 [OSI-027] (partner 0.5 µM)
Outline: as §1

UMC-11 gave a relative viability (OSI-027 + Navitoclax; first compound 0.01 µM) of 0.317, a relative viability (OSI-027 + Navitoclax; first compound 0.03162 µM) of 0.29 and a relative viability (OSI-027 + Navitoclax; first compound 0.1 µM) of 0.29. The relative viability (OSI-027 + Navitoclax; first compound 0.3162 µM) was 0.257, the relative viability (OSI-027 + Navitoclax; first compound 1 µM) was 0.216 and the relative viability (Vemurafenib + Pemetrexed; first compound 0.03162 µM) was 0.876. It also gave a relative viability (Vemurafenib + Pemetrexed; first compound 0.1 µM) of 0.662, a relative viability (Vemurafenib + Pemetrexed; first compound 0.3162 µM) of 0.717 and a relative viability (Vemurafenib + Pemetrexed; first compound 1 µM) of 0.707. The relative viability (Vemurafenib + Linsitinib; first compound 0.03162 µM) was 0.945, the relative viability (Vemurafenib + Linsitinib; first compound 0.1 µM) was 0.989 and the relative viability (Vemurafenib + Linsitinib; first compound 0.3162 µM) was 1.06. For the same cell line, the relative viability (Vemurafenib + Linsitinib; first compound 1 µM) was 0.949, the relative viability (Alpelisib + OSI-027; first compound 0.04 µM) was 0.473 and the relative viability (Alpelisib + OSI-027; first compound 0.1265 µM) was 0.464. For the same cell line, the relative viability (Alpelisib + OSI-027; first compound 0.4 µM) was 0.502, the relative viability (Alpelisib + OSI-027; first compound 1.265 µM) was 0.438 and the relative viability (Alpelisib + OSI-027; first compound 4 µM) was 0.462.
